This is an account of results in US10144944B2, “Methods of cell culture” (Momenta Pharmaceuticals, Inc., priority 2013, dated 2018).

Assay [1] has as its system CHO cells genetically engineered to express the antibody. The settings on record: for Product titer: day-7 batch culture; for viable cell density (VCD): day 4. As for the experimental part:
(§1) The effect of putrescine on antibody glycoforms of a model antibody produced by CHO cells was analyzed. CHO cells genetically engineered to express the antibody were grown initially in base media (Power CHO2, Catalog #BE15-771, Lonza Inc., Allendale, N.J.). Cells were then inoculated (at 0.55×10^6 cells/mL) into a chemically defined medium containing 0.17 mg/L, 0.35 mg/L, or […] putrescine 2HCl and cultured as a batch culture in TPP tubespins for 7 days.
(§2) Cell viability was assessed on day 4 using a hemocytometer using cells stained with trypan blue. Titer was determined from the day-7 cultures by protein A affinity HPLC. Relative quantitation of each glycoform was performed on purified protein using Chip ToF. Chip ToF uses mass spectrometry to measure the extracted ion chromatogram (XIC) area for each species after chip-based enzymatic removal and purification of N-glycans, relative to the total XIC for detected species (see, e.g., mAb-Glyco Chip Kit, Agilent Technologies).

Assay [2] concerns model antibody produced by CHO cells. As for the experimental part:
as §1, §2

[3] abbreviates: with increasing levels of putrescine, FIG. 4.
Setting [4] is: with increasing putrescine, FIG. 3.

Read-outs that look alike come from different tables or passages of the source.

Take `NCCCCN` [putrescine]: the Product titer is on record as 40 mg/L in assay [1] (0.17 mg/L putrescine in medium), 58 mg/L in assay [1] (0.35 mg/L putrescine in medium) and 73 mg/L in assay [1] (0.52 mg/L putrescine in medium). The “viable cell density (VCD)” value in assay [1] (0.17 mg/L putrescine) is 1.5×10^6 cells/mL; in assay [1] (0.35 mg/L putrescine), 1.8×10^6 cells/mL; in assay [1] (0.52 mg/L putrescine) it was 2.2×10^6 cells/mL. The “relative change in G0F, G1F, and G2F” value in assay [2] (0.52 mg/L putrescine compared to 0.17 mg/L putrescine, FIG. 3) is reported as “about 10%”. The “putrescine level above which effect on fucosylated glycans saturates” value in assay [2] (non-linear relationship, FIG. 2) was “above 0.35 mg/mL”. Besides, the “fraction of fucosylated glycans” value in assay [2] (with increasing levels of putrescine (0.17-0.52 mg/L), FIG. 2) was “increased”. For the same compound, the high mannose glycans result in assay [2] (setting [3]) is reported as “reduced”. Also, the “level of sialylated glycans” value in assay [2] (setting [3]) is “increased”. In assay [2] (with increasing putrescine), the level of galactosylation entry is recorded as “increase”. In addition, in assay [2] (setting [4]), the “levels of G0F” value is on record as “reduced”. Further, the “levels of G1F” value in assay [2] (setting [4]) was “increased”. Besides, in assay [2] (setting [4]), the “levels of G2F” value is “increased”.
